Assay results from patent US10383948B2, “Anti-cMet antibody drug conjugates and methods for their use” (AbbVie Inc., priority 2016, dated 2019).

Tests used:
[1] = system: NSCLC; assay: Phase 1b combination with erlotinib; type: in vivo, human; conditions: ABBV-399 2.7 mg/kg once every 21 days plus erlotinib 150 mg orally every day
From the text: ABBV-399 will be combined with standard doses of erlotinib, cetuximab, bevacizumab or nivolumab starting at an ABBV-399 dose level below the MTD or MAD and then escalated no higher than MTD or MAD determined in the monotherapy dose-escalation/expansion. Dose limiting toxicity definitions will apply to the dose-escalation portion of each Combination.

[2] = system: NHDF (dermal fibroblasts); assay: Cytotoxicity assay (CellTiter-Glo, 6 days); type: cell-based; conditions: NHDF (dermal fibroblasts) non-tumor; relative to untreated control at ≤1 μg/mL in a six day proliferation
Procedure: (§1) Tumor cells were plated at 2000-5000 cells/well in 180 μL growth medium containing 10% FBS in 96-well plates, and cultured at 37° C. in a humidified incubator with 5% C02. The following day, titrations of antibodies or ADCs in 20 μL were added and cells were incubated for 6 days. Cell viability was determined using a CellTiter-Glo Luminescent Cell Viability Assay (Promega) according to the manufacturer's instructions. A non-binding, irrelevant negative control ADC conjugated to MMAE was also included in all assays to confirm that cell killing was antigen dependent.

[3] = system: HUVEC (vascular endothelial); assay: Cytotoxicity assay (CellTiter-Glo, 6 days); type: cell-based; conditions: HUVEC (vascular endothelial) non-tumor; relative to untreated control at ≤1 μg/mL in a six day proliferation
Procedure: as §1

[4] = system: HMEC (mammary epithelial); assay: Cytotoxicity assay (CellTiter-Glo, 6 days); type: cell-based; conditions: HMEC (mammary epithelial) non-tumor; relative to untreated control at ≤1 μg/mL in a six day proliferation
Procedure: as §1

[5] = system: PrEC (prostate epithelial); assay: Cytotoxicity assay (CellTiter-Glo, 6 days); type: cell-based; conditions: PrEC (prostate epithelial) non-tumor; relative to untreated control at ≤1 μg/mL in a six day proliferation
Procedure: as §1

[6] = system: CTG-0062 colorectal PDX; assay: Patient-derived xenograft, tumor growth delay; type: in vivo, NSG mice; conditions: PDX CTG-0062 (Colorectal); every seven days, six doses; median time to 1 cm^3 vs control
Procedure: (§2) Tumor fragments of 3 to 5 mm^3 at passage 3 (P3) were implanted subcutaneously in the right rear flank of NSG mice (The Jackson Laboratory) with a trochar. ABBV-399 and ABT-700 PBD were administered every seven days for a total of six doses. […] For all groups, tumor volumes were plotted only for the duration that allowed the full set of animal to remain on study. If animals had to be taken off study, the remaining animals were monitored for tumor growth until they reached defined end-points.

[7] = system: CTG-0165 NSCL PDX; assay: Patient-derived xenograft, tumor growth delay; type: in vivo, NSG mice; conditions: PDX CTG-0165 (NSCL); every seven days, six doses; median time to 1 cm^3 vs control
Procedure: as §2

[8] = system: CTG-0440 colorectal PDX; assay: Patient-derived xenograft, tumor growth delay; type: in vivo, NSG mice; conditions: PDX CTG-0440 (Colorectal); every seven days, six doses; median time to 1 cm^3 vs control
Procedure: as §2

[9] = system: CTG-0170 NSCL PDX; assay: Patient-derived xenograft, tumor growth delay; type: in vivo, NSG mice; conditions: PDX CTG-0170 (NSCL); every seven days, six doses; median time to 1 cm^3 vs control
Procedure: as §2

[10] = system: CTG-0084 colorectal PDX; assay: Patient-derived xenograft, tumor growth delay; type: in vivo, NSG mice; conditions: PDX CTG-0084 (Colorectal); every seven days, six doses; median time to 1 cm^3 vs control
Procedure: as §2

[11] = system: CTG-0159 NSCL PDX; assay: Patient-derived xenograft, tumor growth delay; type: in vivo, NSG mice; conditions: PDX CTG-0159 (NSCL); every seven days, six doses; median time to 1 cm^3 vs control
Procedure: as §2

[12] = system: CTG-0164 NSCL PDX; assay: Patient-derived xenograft, tumor growth delay; type: in vivo, NSG mice; conditions: PDX CTG-0164 (NSCL); every seven days, six doses; median time to 1 cm^3 vs control
Procedure: as §2

[13] = system: CTG-0162 NSCL PDX; assay: Patient-derived xenograft, tumor growth delay; type: in vivo, NSG mice; conditions: PDX CTG-0162 (NSCL); every seven days, six doses; median time to 1 cm^3 vs control
Procedure: as §2

[14] = system: CTG-0387 colorectal PDX; assay: Patient-derived xenograft, tumor growth delay; type: in vivo, NSG mice; conditions: PDX CTG-0387 (Colorectal); every seven days, six doses; median time to 1 cm^3 vs control
Procedure: as §2

[15] = system: metastatic solid tumors; assay: Phase 1 monotherapy, best response (RECIST 1.1); type: in vivo, human; conditions: all treated patients
From the text: Three to 6 subjects will be enrolled in each cohort and dosed once every 21 (one dose per 21-day Cycle) or 14 (2 doses per 28-day Cycle) days until disease progression or unacceptable toxicity to determine the maximum tolerated dose (MTD) or maximally administered dose (MAD). Dose limiting toxicity (DLT) definitions will be used to make decisions regarding dose-escalation. […] On the dose-expansion, subjects with advanced solid tumors with cMet overexpression, MET exon 14 mutation or MET amplification will be enrolled.
Dosing began at 0.15 mg/kg and escalated to 0.3, 0.6, 1.2, 1.8, 2.4, 3.0 and 3.3 mg/kg in subsequent cohorts as tolerated. Alternative doses (intermediate or higher) or dosing schedules may be employed based on clinical safety and PK data. A dose of 2.7 mg/kg was also utilized based on the clinical safety and PK data. […] It is not administered as an intravenous push or bolus.
Baseline radiographic tumor assessments with CT (or MRI) of the head, chest, abdomen, and pelvis will be obtained no more than 28 days prior to Cycle 1 Day 1. CT scan (or MRI) will then be repeated approximately every 6 weeks after start of therapy to evaluate the extent of tumor burden. Radiographic tumor assessments will continue until disease progression documented by imaging, start of a new anti cancer therapy, death or withdrawal of consent. Response evaluation will be based on RECIST version 1.1. […]

For “ABBV-399: ADC comprised of the cMet targeting antibody ABT-700 conjugated to MMAE through a valine citrulline (vc) linker”, the “patients with partial response” value [1] was 2/6, the “patients with progressive disease (new lesions)” value [1] was 1/6 and the “Maximal Killing” value [2] was 0%. The “Maximal Killing” value [3] was 6%, the “Maximal Killing” value [4] was 0% and the “Maximal Killing” value [5] was 0%. For the same substance, the “TGD (%) tumor growth delay” value [6] was 0%, the “TGD (%) tumor growth delay” value [7] was 170% and the “TGD (%) tumor growth delay” value [8] was 12%. The “TGD (%) tumor growth delay” value [9] was 336%, the “TGD (%) tumor growth delay” value [10] was 0% and the “TGD (%) tumor growth delay” value [11] was 288%. For the same substance, the “TGD (%) tumor growth delay” value [12] was 25%, the “TGD (%) tumor growth delay” value [13] was 88% and the “TGD (%) tumor growth delay” value [14] was 0%. The “best response: progressive disease” value ([15]; 17/40) was 42.5% and the “best response: stable disease” value ([15]; 20/40) was 50%.
